Assay results: US7094752B2 (Chiron Corporation, priority 1997, dated 2006)
Marks after values point to notes of the source that are not given here. Square brackets hold non-standard residues; d marks the D form. Peptide text beside a SMILES is read from it.

Target: soluble uPAR (Homo sapiens, UniProt Q03405)
Details: for receptor binding activity, alanine scan of peptide 9: compared to peptide 9; for % Inhibition 2.5 uM: 2500.0; for % Inhibition 5 uM: 5000.0

soluble uPAR, sequence (Q03405 23-305 limits assumed): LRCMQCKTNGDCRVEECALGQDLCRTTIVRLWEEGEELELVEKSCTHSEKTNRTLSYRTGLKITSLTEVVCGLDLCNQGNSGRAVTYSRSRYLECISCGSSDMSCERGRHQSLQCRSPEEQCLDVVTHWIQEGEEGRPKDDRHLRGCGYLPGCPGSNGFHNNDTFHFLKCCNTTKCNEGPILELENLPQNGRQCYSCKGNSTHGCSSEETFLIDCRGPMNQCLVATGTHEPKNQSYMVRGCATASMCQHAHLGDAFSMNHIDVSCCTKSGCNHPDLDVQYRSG

Compound | receptor binding activity, alanine scan of peptide 9 | % Inhibition 2.5 uM | % Inhibition 5 uM
AEFFKLGPNGYVYAHSA [Analog 77] | decreased but did not destroy | – | –
CC(C)C[C@H](NC(=O)[C@H](CCCCN)NC(=O)[C@H](Cc1ccccc1)NC(=O)[C@H](Cc1ccccc1)NC(=O)[C@H](CCC(=O)O)NC(=O)[C@H](C)N)C(=O)NCC(=O)N1CCC[C@H]1C(=O)N[C@@H](CC(N)=O)C(=O)NCC(=O)N[C@@H](Cc1ccc(O)cc1)C(=O)N[C@H](C(=O)N[C@H](Cc1ccc(O)cc1)C(=O)N[C@@H](CC(C)C)C(=O)N[C@@H](Cc1c[nH]cn1)C(=O)N[C@@H](CO)C(=O)N[C@@H](C)C(N)=O)C(C)C [Analog 92] (H-AEFFKLGPNGYV[dY]LHSA-NH2) | – | 8.5% | 3.3%
CC(C)C[C@H](NC(=O)[C@H](CCCCN)NC(=O)[C@H](Cc1ccccc1)NC(=O)[C@H](Cc1ccccc1)NC(=O)[C@H](CCC(=O)O)NC(=O)[C@@H](C)N)C(=O)NCC(=O)N1CCC[C@H]1C(=O)N[C@@H](CC(N)=O)C(=O)NCC(=O)N[C@@H](Cc1ccc(O)cc1)C(=O)N[C@H](C(=O)N[C@@H](Cc1ccc(O)cc1)C(=O)N[C@@H](CC(C)C)C(=O)N[C@@H](Cc1c[nH]cn1)C(=O)N[C@@H](CO)C(=O)N[C@@H](C)C(N)=O)C(C)C [Analog 82] (H-[dA]EFFKLGPNGYVYLHSA-NH2) | – | 24* % | 41%
CC(C)C[C@H](NC(=O)[C@H](CCCCN)NC(=O)[C@H](Cc1ccccc1)NC(=O)[C@H](Cc1ccccc1)NC(=O)[C@@H](CCC(=O)O)NC(=O)[C@H](C)N)C(=O)NCC(=O)N1CCC[C@H]1C(=O)N[C@@H](CC(N)=O)C(=O)NCC(=O)N[C@@H](Cc1ccc(O)cc1)C(=O)N[C@H](C(=O)N[C@@H](Cc1ccc(O)cc1)C(=O)N[C@@H](CC(C)C)C(=O)N[C@@H](Cc1c[nH]cn1)C(=O)N[C@@H](CO)C(=O)N[C@@H](C)C(N)=O)C(C)C [Analog 83] (H-A[dE]FFKLGPNGYVYLHSA-NH2) | – | 44% | 59%
AEFAKLGPNGYVYLHSA [Analog 67] | decreased but did not destroy | – | –
CC(C)C[C@H](NC(=O)[C@H](CCCCN)NC(=O)[C@H](Cc1ccccc1)NC(=O)[C@H](Cc1ccccc1)NC(=O)[C@H](CCC(=O)O)NC(=O)[C@H](C)N)C(=O)NCC(=O)N1CCC[C@H]1C(=O)N[C@@H](CC(N)=O)C(=O)NCC(=O)N[C@@H](Cc1ccc(O)cc1)C(=O)N[C@H](C(=O)N[C@@H](Cc1ccc(O)cc1)C(=O)N[C@@H](CC(C)C)C(=O)N[C@@H](Cc1c[nH]cn1)C(=O)N[C@H](CO)C(=O)N[C@@H](C)C(N)=O)C(C)C [Analog 95] (H-AEFFKLGPNGYVYLH[dS]A-NH2) | – | 47% | 59%
AEFFKAGPNGYVYLHSA [Analog 69] | destroyed receptor binding activity | – | –
CC(C)C[C@H](NC(=O)[C@H](CCCCN)NC(=O)[C@H](Cc1ccccc1)NC(=O)[C@H](Cc1ccccc1)NC(=O)[C@H](CCC(=O)O)NC(=O)[C@H](C)N)C(=O)NCC(=O)N1CCC[C@@H]1C(=O)N[C@@H](CC(N)=O)C(=O)NCC(=O)N[C@@H](Cc1ccc(O)cc1)C(=O)N[C@H](C(=O)N[C@@H](Cc1ccc(O)cc1)C(=O)N[C@@H](CC(C)C)C(=O)N[C@@H](Cc1c[nH]cn1)C(=O)N[C@@H](CO)C(=O)N[C@@H](C)C(N)=O)C(C)C [Analog 88] (H-AEFFKLG[dP]NGYVYLHSA-NH2) | – | 80* % | 76%
CC(C)C[C@H](NC(=O)[C@H](CCCCN)NC(=O)[C@H](Cc1ccccc1)NC(=O)[C@H](Cc1ccccc1)NC(=O)[C@H](CCC(=O)O)NC(=O)[C@H](C)N)C(=O)NCC(=O)N1CCC[C@H]1C(=O)N[C@H](CC(N)=O)C(=O)NCC(=O)N[C@@H](Cc1ccc(O)cc1)C(=O)N[C@H](C(=O)N[C@@H](Cc1ccc(O)cc1)C(=O)N[C@@H](CC(C)C)C(=O)N[C@@H](Cc1c[nH]cn1)C(=O)N[C@@H](CO)C(=O)N[C@@H](C)C(N)=O)C(C)C [Analog 89] (H-AEFFKLGP[dN]GYVYLHSA-NH2) | – | 15% | 13%
AEFFKLGPNGAVYLHSA [Analog 74] | destroyed receptor binding activity | – | –
CC(C)C[C@H](NC(=O)[C@H](CCCCN)NC(=O)[C@H](Cc1ccccc1)NC(=O)[C@H](Cc1ccccc1)NC(=O)[C@H](CCC(=O)O)NC(=O)[C@H](C)N)C(=O)NCC(=O)N1CCC[C@H]1C(=O)N[C@@H](CC(N)=O)C(=O)N[C@H](CO)C(=O)N[C@@H](Cc1ccc(O)cc1)C(=O)N[C@H](C(=O)N[C@@H](Cc1ccc(O)cc1)C(=O)N[C@@H](CC(C)C)C(=O)N[C@@H](Cc1c[nH]cn1)C(=O)N[C@@H](CO)C(=O)N[C@@H](C)C(N)=O)C(C)C [Analog 80] (H-AEFFKLGPN[dS]YVYLHSA-NH2) | – | 89% | 95%
AEFFKLGPNGYVALHSA [Analog 76] | destroyed receptor binding activity | – | –
AAFFKLGPNGYVYLHSA [Analog 65] | decreased but did not destroy | – | –
CC(C)C[C@H](NC(=O)[C@H](CCCCN)NC(=O)[C@H](Cc1ccccc1)NC(=O)[C@H](Cc1ccccc1)NC(=O)[C@H](CCC(=O)O)NC(=O)[C@H](C)N)C(=O)NCC(=O)N1CCC[C@H]1C(=O)N[C@@H](CC(N)=O)C(=O)NCC(=O)N[C@@H](Cc1ccc(O)cc1)C(=O)N[C@H](C(=O)N[C@@H](Cc1ccc(O)cc1)C(=O)N[C@@H](CC(C)C)C(=O)N[C@H](Cc1c[nH]cn1)C(=O)N[C@@H](CO)C(=O)N[C@@H](C)C(N)=O)C(C)C [Analog 94] (H-AEFFKLGPNGYVYL[dH]SA-NH2) | – | 36% | 41%
AEFFKLGPNGYAYLHSA [Analog 75] | destroyed receptor binding activity | – | –
CC(C)C[C@H](NC(=O)[C@H](CCCCN)NC(=O)[C@H](Cc1ccccc1)NC(=O)[C@H](Cc1ccccc1)NC(=O)[C@H](CCC(=O)O)NC(=O)[C@H](C)N)C(=O)NCC(=O)N1CCC[C@H]1C(=O)N[C@@H](CC(N)=O)C(=O)NCC(=O)N[C@@H](Cc1ccc(O)cc1)C(=O)N[C@H](C(=O)N[C@@H](Cc1ccc(O)cc1)C(=O)N[C@@H](CC(C)C)C(=O)N[C@@H](Cc1c[nH]cn1)C(=O)N[C@@H](CO)C(=O)N[C@H](C)C(N)=O)C(C)C [Analog 96] (H-AEFFKLGPNGYVYLHS[dA]-NH2) | – | 38* % | 40%
CC(C)C[C@H](NC(=O)[C@H](CCCCN)NC(=O)[C@H](Cc1ccccc1)NC(=O)[C@H](Cc1ccccc1)NC(=O)[C@H](CCC(=O)O)NC(=O)[C@H](C)N)C(=O)NCC(=O)N1CCC[C@H]1C(=O)N[C@@H](CC(N)=O)C(=O)N[C@H](C)C(=O)N[C@@H](Cc1ccc(O)cc1)C(=O)N[C@H](C(=O)N[C@@H](Cc1ccc(O)cc1)C(=O)N[C@@H](CC(C)C)C(=O)N[C@@H](Cc1c[nH]cn1)C(=O)N[C@@H](CO)C(=O)N[C@@H](C)C(N)=O)C(C)C [Analog 81] (H-AEFFKLGPN[dA]YVYLHSA-NH2) | – | 79% | 80%
